Laboratory results published in paper PMC7447632, “Highly functionalized β-lactams and 2-ketopiperazines as TRPM8 antagonists with antiallodynic activity” (Scientific Reports, 2020).

Assays:
Type in all cases: cell-based
rat TRPM8 channel = molecular target: T1, rat TRPM8 channel (Rattus norvegicus, UniProt Q8R455); assay: Ca2+ microfluorometry, menthol-induced Ca2+ influx in HEK293 cells expressing rat TRPM8; details: 100 µM menthol, HEK-rTRPM8; for % Blockade 5 µM: 5 µM compound; for % Blockade 50 µM: 50 µM compound; for IC50: Ca2+ microfluorometry
T1 construct: expressed in transfected cells; host or cells: HEK293 (stably transfected)
Protocol: The ability to inhibit menthol-induced Ca^2+ intracellular influx into the cytosol on HEK293 cells heterologously expressing the rat TRPM8 channel was measured and compared to that of AMTB, a well-known TRPM8 antagonist. Representative recordings of fluorescence obtained in microfluorometry experiments for selected compounds are in Supplementary Fig. S3.
Human embryonic kidney cell line (HEK) stably transfected with rTRPM8 or h-TRPV1 were used as previously described. Briefly, cells were seeded in 96-well plates at a cell density of 30,000 cells 2 days before treatment. Buffer used was HBBS (in mM): 138 NaCl, 5.33 KCl, 1.26 CaCl2, 0.5 MgCl-6H2O, 0.4 MgSO4-7H2O, 4 NaHCO3 0.44 KH2PO4, 0.3 Na2HPO4, pH 7.4. The day of treatment the medium was replaced with 100 µL of the dye loading solution Fluo-4 NW supplemented with probenecid 2.5 mM. After incubation, plates were transferred to a fluorescence plate reader (Polastar BMG). In the experimental protocol, the baseline fluorescence was recorded ([…]) for 3 cycles. After, vehicle, compound at different concentrations and the corresponding antagonist, 10 µM AMTB for TRPM8 or 10 µM Ruthenium Red for TRPV1 were added to the well. Fluorescence intensity was recorded during 7 cycles more. Finally, the agonist 100 µM menthol for TRPM8 or 1 µM capsaicin for TRPV1 was added and fluorescence intensity was recorded during 10 cycles more.
The degree of inhibition of TRPM8 channel gating was calculated by comparison to calcium increase signal elicited by test substances and menthol at 100 µM. Decrease of menthol signal was expressed as percentage of inhibition (%). All data are expressed as mean ± standard deviation (SD). Each condition was assessed by triplicate (n = 3) in 3 independent experiments (N = 3). Z-factor was calculated in each assay using the following equation: […]. In all the experiments Z-factor was ≥ 0.5. To calculate IC50, normalized responses (%) versus log [µM] were adjusted to a non-linear fit with variable slope, a four-parameter dose–response curve following curve Y = 100/(1 + 10^((Log IC50-X)*HillSlope)) where […].

[1] = system: A549 (lung carcinoma, NSCLC); assay: SRB cytotoxicity assay, A549; details: 72 h, SRB; for TGI A549: total growth inhibition; for TGI A549 / CC50: unit inferred; for GI50 / CC50: Homo sapiens, A549; for CC50: read-out: LC50 A549
Protocol: (§1) Human tumor cell lines used in this study were purchased from the ATCC. A-549 (CCL-185), lung carcinoma; HT-29 (HTB-38), colorectal adenocarcinoma; MDA-MB-231 (HTB-26), breast adenocarcinoma; PSN1, pancreas adenocarcinoma.
(§2) All cell lines were maintained in DMEM (Dulbecco’s Modified Eagle's Medium) culture medium supplemented with 10% FBS (Fetal Bovine Serum), 100 Units/mL penicillin/streptomycin at 37 °C, 5% CO2 and 95% humidity.
(§3) Triplicate cultures were incubated for 72 h in the presence or absence of test compounds in dose–response curves (10 concentrations, typically ranging from 10 to 0.0026 µg/mL). A colorimetric assay using sulforhodamine B (SRB) was adapted for quantitative measurement of cell growth and cytotoxicity. A more detailed information on this assay is provides in the supplementary information. GI50 is the compound concentration that produces 50% inhibition on cell growth as compared to control cells.
(§4) In vitro bioassays for the detection of antitumor activity
(§5) The aim of this assay is to evaluate the in vitro cytostatic (ability to delay or arrest tumor cell growth) or cytotoxic (ability to kill tumor cells) activity of the samples […]
(§6) Name Nº ATCC Species Tissue Characteristics
(§7) A549 CCL-185 human lung lung carcinoma (NSCLC)
(§8) HT29 HTB-38 human colon colorectal adenocarcinoma
(§9) MDA-MB-231 HTB-26 human breast breast adenocarcinoma
(§10) PSN1 CRM-CRL-3211 human pancreas pancreas adenocarcinoma […]
(§11) A colorimetric assay, using Sulforhodamine B (SRB) reaction has been adapted to provide a quantitative measurement of cell growth and viability (following the technique described by Skehan et al. J. Natl. Cancer Inst. 1990, 82, 1107-1112 […]
(§12) This form of assay employs 96-well cell culture microplates following the standards of the American National Standards Institute and the Society for Laboratory […]
(§13) used in this study were obtained from the American Type Culture Collection (ATCC) and derive from different types of human cancer.
(§14) A549, HT29, MDA-MB-231 and PSN1 cells were maintained in Dulbecco’s
(§15) Modified Eagle Medium (DMEM) supplemented with 10% Fetal Bovine Serum (FBS), 2mM L-glutamine, 100 U/mL penicillin, and 100 U/mL streptomycin at 37 °C, 5% CO2 and 98% humidity. For the experiments, cells were harvested from subconfluent cultures using trypsinization and resuspended in fresh medium before counting and […]
(§16) A549, HT29, MDA-MB-231 and PSN1 cells were seeded in 96 well microtiter plates, at 5000 cells per well in aliquots of 150 µL, and allowed to attach to the plate surface for 18 hours (overnight) in drug free medium. After that, one control (untreated) plate of each cell line was fixed (as described below) and used for time zero reference value. Culture plates were then treated with test compounds (50 µL aliquots of 4X stock […]
(§17) solutions in complete culture medium plus 4% DMSO) using ten 2/5 serial dilutions (concentrations ranging from 10 to 0.003 µg/mL) and triplicate cultures (1% final concentration in DMSO). After 72 hours treatment, the antitumor effect was measured by using the SRB methodology: Briefly, cells were washed twice with PBS, fixed for 15 min in 1% glutaraldehyde solution at room temperature, rinsed twice in PBS, and stained in 0.4% SRB solution for 30 min at room temperature. Cells were then rinsed several times with 1% acetic acid solution and air-dried at room temperature. SRB was then extracted in 10 mM trizma base solution and the absorbance measured in an automated spectrophotometric plate reader at 490 nm.
(§18) Effects on cell growth and survival were estimated by applying the NCI algorithm (Boyd MR and Paull KD. Drug Dev. Res. 1995, 34, 91-109, DOI:10.1002/ddr.430340203). The values obtained in triplicate cultures were fitted by nonlinear regression to a four-parameters logistic curve by nonlinear regression analysis. . Using the absorbance measurements [time zero, (Tz), control growth, (C), and test growth in the presence of drug at the ten concentration levels (Ti)], the […]

[2] = system: HT29 (colorectal adenocarcinoma); assay: SRB cytotoxicity assay, HT29; details: 72 h, SRB; for TGI HT29: total growth inhibition; for TGI HT29 / CC50: unit inferred; for GI50 / CC50: Homo sapiens, HT-29; for CC50: read-out: LC50 HT29
Protocol: as §1, §2, §3, §4, §5, §6, §7, §8, §9, §10, §11, §12, §13, §14, §15, §16, §17, §18

T1 sequence (Q8R455 whole entry): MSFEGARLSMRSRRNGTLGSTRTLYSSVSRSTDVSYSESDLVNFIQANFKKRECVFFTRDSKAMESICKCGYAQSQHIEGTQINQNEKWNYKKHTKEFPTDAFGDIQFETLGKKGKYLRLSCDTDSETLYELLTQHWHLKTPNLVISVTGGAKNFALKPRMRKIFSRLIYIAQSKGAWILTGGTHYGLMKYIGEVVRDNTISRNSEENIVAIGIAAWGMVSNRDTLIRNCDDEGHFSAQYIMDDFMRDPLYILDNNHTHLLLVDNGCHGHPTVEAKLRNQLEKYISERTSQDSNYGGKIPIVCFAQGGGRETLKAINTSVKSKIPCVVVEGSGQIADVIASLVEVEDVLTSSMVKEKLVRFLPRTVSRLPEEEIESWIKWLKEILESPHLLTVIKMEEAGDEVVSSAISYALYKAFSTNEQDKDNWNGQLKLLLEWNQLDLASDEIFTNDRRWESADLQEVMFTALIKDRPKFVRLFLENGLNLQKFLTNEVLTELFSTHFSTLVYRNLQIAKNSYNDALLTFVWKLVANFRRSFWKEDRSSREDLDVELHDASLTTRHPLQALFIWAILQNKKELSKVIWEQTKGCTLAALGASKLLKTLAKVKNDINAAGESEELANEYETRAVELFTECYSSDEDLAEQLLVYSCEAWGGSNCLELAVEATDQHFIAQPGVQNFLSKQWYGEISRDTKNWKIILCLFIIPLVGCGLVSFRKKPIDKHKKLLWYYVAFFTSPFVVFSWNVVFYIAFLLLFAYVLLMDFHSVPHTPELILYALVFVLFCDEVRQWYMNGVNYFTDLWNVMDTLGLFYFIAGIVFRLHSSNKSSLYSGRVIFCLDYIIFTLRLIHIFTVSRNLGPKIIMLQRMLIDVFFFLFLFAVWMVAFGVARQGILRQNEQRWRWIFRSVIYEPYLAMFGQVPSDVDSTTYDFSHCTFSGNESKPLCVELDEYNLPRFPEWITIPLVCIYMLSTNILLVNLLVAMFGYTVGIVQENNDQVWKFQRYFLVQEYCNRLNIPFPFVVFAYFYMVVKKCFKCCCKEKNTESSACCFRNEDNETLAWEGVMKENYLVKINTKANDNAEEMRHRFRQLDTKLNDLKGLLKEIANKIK

| % Blockade 5 µM (rat TRPM8 channel) | % Blockade 50 µM (rat TRPM8 channel) | IC50 (rat TRPM8 channel) | Compound | TGI A549 [1] | GI50 [1] | CC50 [1] | TGI HT29 [2] | GI50 [2] | CC50 [2] |
| --- | --- | --- | --- | --- | --- | --- | --- | --- | --- |
| 97.2 ± 4.8% | 100.0 ± 5.0% | 0.4 µM | C[C@@H]1C(=O)N(C[C@@H](Cc2ccccc2)NC(=O)OCc2ccccc2)[C@]1(Cc1ccccc1)C(=O)OCc1ccccc1 [Compound 29a, 4S-Benzyl-4-benzyloxycarbonyl-3S-methyl-1-[(2′R-benzyloxycarbonylamino-3′-phenyl)prop-1′-yl]-2-oxoazetidine] | > 17.3 µM | 5.9 µM | > 17.3 µM | > 17.3 µM | 7.11 µM | > 17.3 µM |
| 65.4 ± 6.4% | 110.7 ± 11.7% | 2.4 ± 1.2 µM | C[C@@H]1C(=O)N(C[C@H](Cc2ccccc2)NC(=O)OCc2ccccc2)[C@]1(Cc1ccccc1)C(=O)OCc1ccccc1 [Compound 24a, 4S-Benzyl-4-benzyloxycarbonyl-3S-methyl-1-[(2′S-benzyloxycarbonylamino-3′-phenyl)prop-1′-yl]-2-oxoazetidine] | > 17.3 µM | 3.29 µM | > 17.3 µM | > 17.3 µM | 4.16 µM | > 17.3 µM |
